Source: patent US20230151065A1, “MULTI-DISULFIDE-BOND LONG-CHAIN PEPTIDE WITH NEURO[…], PHARMACEUTICAL COMPOSITION AND APPLICATION” (priority 2018, published 2023)
Where no end group is shown, it is not given here.

Experiments:
[1] = system: primary cultured hippocampal neurons damaged by NMDA; test: NMDA damage of primary cultured hippocampal neurons, MTT viability; assay type: cell-based, SD (Sprague-Dawley) rat; conditions: for hippocampal neuron activity after NMDA damage (MTT): MK801 10 μM
From the text: (1) Establishment of NMDA damage model. Primary culture of hippocampal neurons: SD (Sprague-Dawley) female rats pregnant for 18-19 days were anesthetized with a compound anaesthetic agent; fetal rat brains were taken under aseptic conditions and placed in HBSS solution (8.4 g/L of NaCl, 0.224 g/L of KCl, 2.38 g/L of HEPES, 500,000 units of penicillin sodium and 500,000 units of kanamycin sulfate; the pH was adjusted to 7.1-7.2 with 1M NaOH; then the osmotic pressure was adjusted to about 290±10 m Osm with ultrapure water; and after filtration, the solution was stored at 4° C.); the meninges were removed under a stereoscopic dissecting microscope; the bilateral hippocampus was removed and digested in 0.125% pancreatic protease at 37° C. for 10 min; and complete media (90% DMEM medium+10% FBS) (FBS: fetal bovine serum) was used to terminate the digestion; the bilateral hippocampus was washed for 3 times with the complete media to make a single cell suspension; the cell density was adjusted to about 7-8×10^5/ml; and the bilateral hippocampus was inoculated to a 6-well/96-well cell culture plate/60 mm culture dish/slide coated with L-polylysine. After 24 hours, the media were changed to serum-free neurobasal media (GIBCO) which were then placed in a 5% CO2, 37° C. incubator for culture; and half of the solution was changed every three days.
(2) NMDA damage treatment of hippocampal neurons: (1) The original media were sucked out and the cells were washed with magnesium-free extracellular fluid for three times, each for 5 minutes. (2) 10 mM NMDA (N-methyl-D-aspartic acid) and 10 mM Gly (glycine) were prepared with magnesium-free extracellular fluid, and NMDA was prepared to different concentrations with the magnesium-free extracellular fluid, wherein the final concentration of Gly was 10 μM. […] After damage, the cells were washed for three times with DMEM medium, each for 5 minutes. (3) The original culture media were re-added to continue for culturing for 24 hours.
(3) Detection of viability of hippocampal neurons after NMDA damage: (1) The hippocampal neurons were inoculated into a 96-well culture plate at 8×10^5 cells/ml, 0.1 ml per well, and cultured in a 5% CO2 incubator for 7-8 days. (2) After NMDA damage treatment and continuous culture for 24 hours, the culture solution was sucked off. (3) 100 μl of DMEM culture medium containing MTT (3-(4,5-dimethylthiazole-2)-2,5-diphenyltetrazolium bromide, 0.5 mg/ml) was added to each well, and the culture plate was put into 37° C., 5% CO2 incubator for culturing for 4 h. (4) 100 μl of 20% SDS was added to each well (20 g of sodium lauryl sulfate was dissolved in 50 ml of ddH2O+50 ml of N,N dimethylformamide) at 37° C. for 20 h. (5) The solution was shaken on a horizontal shaker for 5 min. (6) The optical density (OD) was measured at 570 nm (reference wavelength of 490 nm) on a microplate reader.
(6) Effect of ABPPk2 on decrease of hippocampal neuron activity caused by NMDA. Effect of different concentrations of ABPPk2 on hippocampal neuron damage caused by NMDA (100 μM, 30 min). The experiment was divided into 9 experimental groups: a normal group, NMDA (100 μM, 30 min) group (as a control group), ABPPk2 (0.01 μg/ml) group, ABPPk2 (0.1 μg/ml) group, ABPPk2 (0.3 μg/ml) group, ABPPk2 (1 μg/ml) group, ABPPk2 (3 μg/ml) group, ABPPk2 (10 μg/ml) group and MK801 (dizocilpine, 10 μM) group (as a positive control group). Three administration ways were adopted for ABPPk2: (1) ABPPk2 was administered 12 hours before and during the NMDA damage. (2) ABPPk2 was administered during NMDA damage. (3) ABPPk2 was administered during 24 hours of culture after NMDA damage.

[2] = system: primary cultured SD fetal rat cortical neurons after OGD damage; test: OGD damage of cortical neurons, CCK-8 activity; assay type: cell-based; conditions: OGD 2 h, 24 h reoxygenation; ABPPk2 8, 40, 200 ng/ml; effect more obvious as dose increased
Procedure: The suspension was filtered with a 400-mesh screen, centrifuged at 1000 rpm for 5 min, and blown to form the single cell suspension. DMEM high glucose complete medium (containing 10% fetal bovine serum) was inoculated in a culture dish or culture plate pre-coated with polylysine (PLL) to culture in 5% CO2 incubator with saturated humidity at 37° C. After the cells were cultured for 4 h to adhere to the wall, the cells were cultured with neuron culture medium (neurobasal+2% B27) for 3 d to observe the growth of neurons. The culture medium containing cytarabine (the final concentration of cytarabine was 2.5 μg/ml) was substituted with half quantity to culture for 3d to inhibit the growth of glial cells and miscellaneous cells to obtain purely cultured primary cortical nerve cells. The purity of the cortical neurons was identified by immunocytochemical staining as more than 90%.
After the cortical neurons were cultured to the 7th day, the original culture medium was sucked out, and the cells were rinsed twice with sugar-free DMEM basal medium, for 5 min each time. […]
Analysis of cortical neuron activity after OGD damage and drug treatment: cortical neurons were inoculated into 96-well plates at 1×10^6 cells/ml; and 100 μl cell suspension was added to each well. […] The absorbance (OD) value of the sample in each well was measured on the microplate reader at 450 nm wavelength. […]

Cys-Leu-Glu-Ser-Gly-Thr-Ser-Cys-Ile-Pro-Gly-Ala-Gln-His-Asn-Cys-Cys-Ser-Gly-Val-Cys-Val-Pro-Ile-Val-Thr-Ile-Phe-Tyr-Gly-Val-Cys-Tyr (CLESGTSCIPGAQHNCCSGVCVPIVTIFYGVCY; disulfide (positions not given here); not fully specified (bridges); also: three disulfide bonds, pairing not given here) [ABPPk2, 33 amino acid polypeptide isolated from the extract of Achyranthes bidentata Blume, three pairs of disulfide bonds]
hippocampal neuron activity after NMDA damage (MTT) ([1]; given 12 h before and during NMDA (100 μM, 0.5 h), ABPPk2 0.1, 0.3 and 1 μg/ml groups): can effectively reduce the decrease of hippocampal neuron activity caused by NMDA damage
hippocampal neuron activity after NMDA damage (MTT) ([1]; given during 24 h culture after NMDA damage (100 μM, 0.5 h), ABPPk2 0.1-10 μg/ml): can effectively reduce the decrease of hippocampal neuron activity caused by NMDA damage
hippocampal neuron activity after NMDA damage (MTT) ([1]; given during NMDA damage (100 μM, 0.5 h), ABPPk2 1 and 10 μg/ml groups): can effectively reduce the decrease of hippocampal neuron activity caused by NMDA damage
protective effect on NMDA damage of primary hippocampal neurons ([1]; overall statement, experimental solution of embodiment 6, concentration and administration way not stated): has a protective effect on the damage of primary cultured hippocampal neurons induced by NMDA
cortical neuron activity (CCK-8) [2]: can effectively antagonize the decrease of cortical neuron activity caused by OGD damage
